The test system of experiment [1] is CHO cells expressing an nanobody. In words: Fed batch culture of CHO cells expressing a nanobody in shake flasks, FeSO4 addition on day 6. It is filed as cell-based, Chinese hamster. The note with it: 1 mM iron added on day 6. Here is the method: CHO cells expressing an nanobody were grown by fed batch culture in shake flasks. Cells were initially cultured in 7% CO2 incubator at 37° C. for 0-4 days and shifted to 31° C. after day 4. FeSO4 was added on day 6 to effect a concentration of 1 mM of iron in the cell culture medium. Cells were subjected to cell density, viability, titer, lactate level and Qp analysis at various time points throughout the cell culture process as described in Example 1.

Experiment [2] relates to cell line producing a monoclonal antibody (clone 2.8). In words: Fed batch culture of clone 2.8 in shake flasks, Fe addition on day 0 or day 9. Type of experiment: cell-based. The note with it: 600 μM added on day 0. Here is the method: This experiment is designed to test whether a high concentration of Fe added at day 0 would have an advantageous effect. […] Seed density was 1.5×10^6 cells/mL. The cells were cultured for 14 days. The basal medium was a chemically defined basal medium supplemented with amino acids including 4 mM glutamine. Feed medium is a chemically defined concentrated feed medium. Fe-citrate or FeSO4 was added on day 0 or day 9 to effect a concentration of 600 μM of iron in the cell culture medium. Cells were subjected to cell density, viability, titer and Qp analysis at various time points throughout the cell culture process as described in previous examples.

The term viability denotes a per cent measure of how many cells are alive, often set against a control. Read a low viability as a greater loss of cells. The compound `O=S(=O)([O-])[O-].[Fe+2]` [FeSO4] had a Qp in experiment [1] (control 10 μg/e6/day, FIG. 9) of 20 μg/e6/day. Also, the lactate level in experiment [1] (control increased to 2.24 g/L on day 15, FIG. 10) is on record as approximately 0 g/L. The titer in experiment [1] (read on day 15, control 1.5 g/L, FIG. 8) is on record as 3.2 g/L. In experiment [1] (read on day 15, control 70%, FIG. 7), the viability was found to be 96%.
Turning to ferric citrate [Fe-citrate], the cell growth result in experiment [2] (FIG. 11) was “increased cell growth at early stage”. Moreover, the “viability on day 14” value in experiment [2] (control 74-80%, FIG. 12) was “about 75%”. In experiment [2] (throughout the culture, FIG. 13), the Qp entry is “lower than all other conditions”.
